“Also recorded” adds a separate entry of the source.

The values that follow come from patent US10874637B2, “Methods and pharmaceutical compositions for the treatment of neurodegeneration with brain iron accumulation” (INSERM (Institut National de la Santé et de la Recherche …, priority 2016, dated 2020).

One test deals with TfR1. The test can be described thus: TfR1 palmitoylation assay in cultured skin fibroblasts (fatty acyl exchange chemistry). Type of test: cell-based, human. The note with it: control and NBIA fibroblasts, 25 μM artesunate for 48 h. The protocol: Skin fibroblasts were isolated from patients 1-2 and from four NBIA patients carrying biallelic PANK2, PLA2G6, C19ORF12 and FA2H mutations (Supplementary Table 2). Fibroblasts were grown in DMEM (Life technologies) medium supplemented with 10% fetal beef serum (FBS), 2 mM L-glutamine, 2.5 mM pyruvate, 100 μg/ml streptomycin, 100 U/ml penicillin at 37° C. For treatment with ferric ammonium citrate (FAC), 90% confluent cells were incubated for 72 h with or without 100 μM FAC in serum-free DMEM (i.e. Tf free). HeLa cells were grown in the same medium. TfR1 palmitoylation in cultured skin fibroblasts was modified from^15. Briefly, cells were lysed on ice in a DTT-free cell lysis buffer and endogenous TfR1 was immunoprecipitated with mouse anti-TfR1 antibody (Zymed) with protein G magnetic beads (Biorad). After washing with PBS, beads were incubated overnight with 50 mM N-ethylmaleimide (NEM) at 4° C., washed 3 times with PBS and then incubated with 1 M hydroxylamine (HA) at room temperature for 2 hours. After three washes, the beads were incubated with 50 mM HPDP-Biotin (Thermo) in dark for 2 hours. Biotin-labeled TfR1 level was determined by immunoblotting in non-reducing conditions using a goat anti-biotin antibody (Thermo) while immunoblotting with rabbit anti-TfR1 antibody (Abcam) was used as loading control.

The test system of another test is liver and ovarian cancer. The note with it: via induction of TfR1 palmitoylation and reduction of its cell-surface levels; cited from earlier work.
A further test concerns ferritin (FTH). The test can be described thus: Western blot of ferritin (FTH) steady state levels in fibroblasts. Type of test: cell-based, human. The note with it: control and NBIA fibroblasts, artesunate treatment (25 μM, 48 h). The protocol: Skin fibroblasts were isolated from patients 1-2 and from four NBIA patients carrying biallelic PANK2, PLA2G6, C19ORF12 and FA2H mutations (Supplementary Table 2). Fibroblasts were grown in DMEM (Life technologies) medium supplemented with 10% fetal beef serum (FBS), 2 mM L-glutamine, 2.5 mM pyruvate, 100 μg/ml streptomycin, 100 U/ml penicillin at 37° C. For treatment with ferric ammonium citrate (FAC), 90% confluent cells were incubated for 72 h with or without 100 μM FAC in serum-free DMEM (i.e. Tf free). HeLa cells were grown in the same medium. Cultured skin fibroblasts or HeLa cells were harvested on ice by scraping in reducing or non-reducing cell lysis buffer. SDS-PAGE was performed on whole-cell protein extracts. Immunodetections were performed in PBS with 5% milk, 0.05 Tween20 (SIGMA) using the following antibodies: rabbit anti-CRAT (HPA022815, Sigma), rabbit anti-ACOT8 (SAB4500009 SIGMA), mouse anti-REPS1 (ab69221), mouse anti-SOD1 (ab86454), mouse anti-TfR1 (Zymed 136890), rabbit anti-ferritin (ab75973), rabbit anti-IRP1 (ab126595), rabbit anti-IRP2 (ab80339), mouse anti-GRIM19 (ab110240), rabbit anti-catalase (ab16731), rabbit anti-FBXLS (ab140175), rabbit anti-LC3B (ab51520) and mouse anti-actin antibodies (ab8226). […]
In general terms: In western blotting, separated proteins are transferred to a membrane and probed.

For another test, the system named is iron amount. The note with it: treatment increasing TfR1 palmitoylation; cited from earlier work.

As for `C[C@H]1[C@H](OC(=O)CCC(=O)O)O[C@@H]2O[C@@]3(C)CC[C@H]4[C@H](C)CC[C@@H]1[C@@]24OO3` [artesunate, (3R,5aS,6R,8aS,9R,10S,12R,12aR)-Decahydro-3,6,9-trimethyl-3,12-epoxy-12H-pyrano [4,3-j]-1,2-benzodioxepin-10-ol, hydrogen succinate], the TfR1 palmitoylation entry with TfR1 is given as “enhanced TfR1 palmitoylation; also recorded: improved TfR1 palmitoylation”. In addition, in the test with liver and ovarian cancer, the “liver and ovarian cancer growth” value is “inhibit liver and ovarian cancer growth”. For the same compound, in the test with ferritin (FTH), the “ferritin (FTH) steady state levels (indicator of iron content)” value was “decreased ferritin steady state level”.
In the case of dihydroartesunate, the iron amount result in the test on iron amount is reported as “reduces iron amount”.
